Like-named read-outs stand apart in the source and are kept apart here. Residues, ends and D or L forms follow the SMILES beside them. No end group written: not given here.
Key:
[1] = target: allosteric site on the α7 nicotinic-receptor (Rattus norvegicus, UniProt Q05941); experiment: Binding affinity for the allosteric site of the α7 nicotinic-receptor, using tests for viability
[2] = target: T1, α7 nicotinic receptor (Rattus norvegicus, UniProt Q05941); experiment: Acetylcholine-induced calcium influx (Fluo-8) in PC12 cells; assay type: cell-based
T1 construct: [3H]; host or cells: wild-type PC12 cells
T1 sequence (Q05941 23-502): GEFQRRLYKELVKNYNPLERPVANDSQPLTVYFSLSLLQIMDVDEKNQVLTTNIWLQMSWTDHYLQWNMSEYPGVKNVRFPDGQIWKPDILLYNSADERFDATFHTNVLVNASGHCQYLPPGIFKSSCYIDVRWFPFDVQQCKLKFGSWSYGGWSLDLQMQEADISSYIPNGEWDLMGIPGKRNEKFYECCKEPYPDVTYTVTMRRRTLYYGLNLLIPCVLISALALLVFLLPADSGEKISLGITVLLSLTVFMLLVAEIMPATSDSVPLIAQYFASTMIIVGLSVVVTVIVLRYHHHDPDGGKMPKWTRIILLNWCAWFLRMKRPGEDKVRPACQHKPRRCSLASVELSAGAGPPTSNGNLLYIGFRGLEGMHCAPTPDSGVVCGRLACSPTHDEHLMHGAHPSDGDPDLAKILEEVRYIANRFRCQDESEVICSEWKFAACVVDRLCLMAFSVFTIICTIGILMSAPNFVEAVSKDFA
Procedure: PC12 cells are plated in 200 μl of complete growth medium the day before the experiment in 96 well plates. On the day of the experiment, the Fluo-8 solution (Abcam) is prepared (as provider protocol). Subsequently, 100 μl of growth medium is removed and 100 μl of Fluo-8 solution is added. Treatments with T30 and NBP-14 are added and incubated for 30 minutes in the incubator and 30 minutes room temperature.
After 1 hour, the plate is placed in the fluorescence plate reader (Fluostar). Before reading the fluorescence, acetylcholine (ACh) 100 μM is prepared and placed in the Fluostar injector. For each well, the reading will be formed by a basal fluorescence followed by acetylcholine injection that will induce an increase of calcium via nicotinic receptors. The effects of T30 and NBP-14 are then evaluated.

[3] = Sulforhodamine B (SRB) cell viability assay; assay type: cell-based; details: 1 hour
Procedure: Wild-type PC12 cell were provided by Sigma-Aldrich (St. Louis, MO). The culture was routinely plated in 100 mm dishes (Corning) coated with collagen (2 μg/cm^2) and maintained in growth medium with Minimum Essential Medium Eagle (MEM) supplemented with heat-inactivated 10% horse serum (HS) and 5% foetal bovine serum (FBS), 10 mM HEPES, 2 mM L-Glutamine and 1:400 Penicillin/streptomycin solution. Cells were maintained at 37° C. in a humidified atmosphere 5% CO2 and the medium was replaced every 2 days. For splitting, cells were dislodged from the dish using a pipette with medium, with a portion of these replated onto new cultured dishes. Cells were used between passages 12 and 25.
The cell viability assay used was the sulforhodamine B (SRB) colorimetric assay for toxicity screening. The day before of the experiment cells were seeded onto collagen-coated 96-well plates in a concentration of 40,000 cells/well. Cell concentration was determined by the Fuchs-Rosenthal chamber. […] After treatment, medium was replaced and cells were fixed by adding 100 μl of 10% Trichloroacetic Acid (TCA) for 1 h at 4° C. Thereafter, cells were washed with H2O and stained with 100 μl of a 0.057% SRB solution in 1% Acetic acid (HAc) for 30 minutes at room temperature. After staining cells were washed with 1% HAc for removing the excess of SRB and then incubated with 200 μl of 10 mM Tris base (pH 10.5) and shake it for 5 minutes to solubilise the protein-bound dye. Measurement of the absorbance took place in a VMax Kinetic Microplate Reader (Molecular Devices) at 490 nm.

[4] = test system: Amyloid Precursor Protein (APP); experiment: Western blot detection of full-length APP in solubilized PC12 cells; assay type: cell-based; details: 1 hour
Procedure: PC12 cells are plated with growth medium in Petri Dishes for a week in order to have enough protein to detect APP in PC12 membranes and treated for 1 hour with T30 and NBP-14 before solubilizing the protein. Once the cells have grown until 90% confluence, the growth medium is removed and cells are re-suspended in 2 ml of HBSS. The cells suspension is transferred to a 15 ml tube and centrifuge 5 minutes at 1000 rpm. Then the supernatant is discarded and the pellet is re-suspended in Lysis buffer (20 mM Tris, 137 mM NaCl, 1% Triton X-100, 2 mM EDTA; pH 8) plus protease inhibitors (1 μl:1 ml PMSF and 3 μl:1 ml Aprotinin) and triturated by using a Polytron for 10 seconds. Subsequently, the triturated pellet is distributed in 1.5 ml eppendorfs and rotated or shaken for 2 h at 4° C. […] The Bradford reagent is used to quantify the protein contained in each eppendorf. […]
The steps for electrophoresis are the following: • a) Prepare the lower and the upper acrilamide gels. The % for APP gel is 10% lower gel and 5% stacking gel. • b) Prepare 24 μl of sample at a concentration of 25 μg (determined by the Bradford Assay) (6 μl SB 4× containing β-mercaptoethanol+protein+lisis) and boil them at 100° C. for 5 minutes to denaturalize them. • c) Put the protein marker and the samples in the wells of the gel (20-30 μL). • d) Proceed to Migration: 35 mA (nearly 1 hour). […]

[5] = target: T2, α7nAChR (the α7 nicotinic acetylcholine receptor), allosteric site (Rattus norvegicus, UniProt Q05941); experiment: [3H] Ivermectin binding assay on PC12 cell membranes
T2 construct: [3H]; host or cells: wild-type PC12 cells
T2 sequence (Q05941 23-502): as above
Procedure: PC12 membranes where obtained to perform binding assays. PC12 cells were grown until confluence on 100 mm plates. Growth medium was removed and ice-cold 50 mM Tris-HCl buffer (pH 7.4) containing 4.5 μg/μ1 aprotinin and 0.1 mM phenylmethylsulphonylfluoride (PMSF) were added. Cells were mechanically detached and pelleted by centrifugation (1040×g) for 4 minutes at 4° C. Pellets were homogenized with a Polytron and centrifuged (13000×g) for 20 minutes at 4° C. The pellets were resuspended in fresh buffer and incubated at 37° C. for 10 minutes to remove endogenous neurotransmitters. The samples were subsequently re-centrifuged. The final pellet was resuspended in buffer and the protein concentration determined using the Bradford Reagent (Sigma-Aldrich, St. Louis, MO). The cell membrane preparation was stored at −80° C.
For the binding with PC12 membranes, each incubation was performed in polystyrene tube (VWR International Ltd; Leicestershire, UK) containing 0.25 ml of membranes diluted in Tris-HCl 50 mM buffer (containing 50 μg of PC12 membranes) with 5 nM [3H] […] Thereafter, samples were filtered through Brandel GB glass fibre filters (MD, USA); pre-soaked in 0.5% polyethylenemine by a Harvester (Brandel; MD, USA). Tubes were washed 3 times with ice cold 50 mM Tris-HCl buffer. Radioactivity in the tubes was counted by scintillation spectrometry using a 300 SL Liquid scintillation counter (Lablogic Systems Limited, UK). Specific binding was determined by subtracting the non-specific (cells treated with Ivermectin 30 μM) value to all the tubes.

[6] = test system: PC12 cells; experiment: AChE release / AChE activity in perfusate of treated PC12 cells (Ellman assay); assay type: cell-based
[7] = T30 5 uM + NBP-14 5 nM (1st of 10 values)
[8] = T30 5 uM + NBP-14 7 nM (2nd of 10 values)
[9] = T30 5 uM + NBP-14 9 nM (3rd of 10 values)
[10] = T30 5 uM + NBP-14 10 nM (4th of 10 values)
[11] = T30 5 uM + NBP-14 20 nM (5th of 10 values)
[12] = T30 5 uM + NBP-14 50 nM (6th of 10 values)
[13] = T30 5 uM + NBP-14 70 nM (7th of 10 values)
[14] = T30 5 uM + NBP-14, 9th of 10 values, concentration unclear
[15] = T30 5 uM + NBP-14, 10th of 10 values, concentration unclear

Chain of allosteric site on the α7 nicotinic-receptor (Q05941 23-502): as above

CSCC[C@@H]1NC(=O)[C@H](Cc2ccc(O)cc2)NC(=O)[C@H](CO)NC(=O)[C@H](CO)NC(=O)[C@H](Cc2c[nH]c3ccccc23)NC(=O)[C@H](CCCNC(=N)N)NC(=O)[C@H](Cc2c[nH]cn2)NC(=O)[C@H](Cc2ccccc2)NC(=O)[C@H](CCC(=O)O)NC(=O)[C@H](C)NC(=O)[C@H](CCCCN)NC(=O)[C@H](Cc2c[nH]c3ccccc23)NC(=O)[C@H](Cc2c[nH]cn2)NC(=O)[C@H](C(C)C)NC1=O [Cyclic T14] (cyclo(AEFHRWSSYMVHWK))
affinity (Table 3 feature) ([1]; ✓ = Dream Drug feature 'Nanomolar affinity'): ✓ | receptor specificity (Table 3 feature) ([1]; ✓ = Dream Drug feature 'Specific action at α7 receptor'): ✓ | calcium influx, T30 + NBP-14 [2, 7]: 134.2497±6.85% | calcium influx, T30 + NBP-14 [2, 8]: 120.8612±8.65% | calcium influx, T30 + NBP-14 [2, 9]: 113.9162±8.82% | calcium influx, T30 + NBP-14 [2, 10]: 140.776±12.16% | calcium influx, T30 + NBP-14 [2, 11]: 115.83±7.67% | calcium influx, T30 + NBP-14 [2, 12]: 110.3213±13.21% | calcium influx, T30 + NBP-14 [2, 13]: 125.9596±0.1% | calcium influx, T30 + NBP-14 ([2]; T30 5 uM + NBP-14, 8th of 10 values, only 9 concentrations printed (.. 70, 1000, 5000 nM), concentration unclear): 99.85±0.32% | calcium influx, T30 + NBP-14 [2, 14]: 115.1942±9.84% | calcium influx, T30 + NBP-14 [2, 15]: 79.99±14.04% | concentration range protective against T30-induced calcium influx ([2]; T30 5 uM, FIG. 13): low nanomolar range | viability ([3]; T30 10 μM + Cyclic T14 100 nM, read-out: cell viability, T30 combined with Cyclic T14): 88.6 ± 8.79% | viability ([3]; cell viability, β-amyloid combined with Cyclic T14, β-Amyloid 10 μM + Cyclic T14 100 nM): 94.5 ± 7.4% | viability ([3]; cell viability, β-amyloid combined with Cyclic T14, β-Amyloid (10 μM) + Cyclic T14 0.5 nM): 88.5 ± 10% | viability ([3]; cell viability, β-amyloid combined with Cyclic T14, β-Amyloid (10 μM) + Cyclic T14 1 nM): 97.3 ± 9.57% | viability ([3]; cell viability, β-amyloid combined with Cyclic T14, β-Amyloid (10 μM) + Cyclic T14 10 nM): 102 ± 8.53% | viability ([3]; cell viability, β-amyloid combined with Cyclic T14, β-Amyloid (10 μM) + Cyclic T14 50 nM): 102 ± 14% | viability at 10 µM ([3]; cell viability, β-amyloid combined with Cyclic T14, β-Amyloid (10 μM) + Cyclic T14 'moo' (nM)): 104 ± 6.34% | viability at 1 h, 0.1 µM ([3]; rat, PC12 cells (wild-type), Cyclic T14 alone 100 nM, PC12): 98.8 ± 15.2% | viability at 1 h, 0.7 µM ([3]; rat, PC12 cells (wild-type), Cyclic T14 alone 700 nM, PC12): 107 ± 19.9% | viability at 1 h, 1 µM ([3]; rat, PC12 cells (wild-type), Cyclic T14 alone 1 μM, PC12): 105 ± 10.9% | viability at 1 h, 100 µM ([3]; rat, PC12 cells (wild-type), Cyclic T14 alone 100 μM, PC12): 93.6 ± 11.6% | levels of full length APP (control 100%) ([4]; T30 5 μM + NBP-14 0.5 μM): 126%±1.12 | % [3H] Ivermectin binding (Mean ± SEM) ([5]; 100 nM competitor, Table 2, N = 6): 98.10 ± 3.28% | % [3H] Ivermectin binding (Mean ± SEM) ([5]; 200 nM competitor, Table 2): 80.81 ± 4.37% | % [3H] Ivermectin binding (Mean ± SEM) ([5]; 500 nM competitor, Table 2): 79.72 ± 6.76% | % [3H] Ivermectin binding (Mean ± SEM) ([5]; 700 nM competitor, Table 2): 62.26 ± 17.63% | % [3H] Ivermectin binding (Mean ± SEM) ([5]; 1 μM competitor, Table 2): 29.006 ± 8.23% | % [3H] Ivermectin binding (Mean ± SEM) ([5]; 2 μM competitor, Table 2): 13.46 ± 10.40% | AChE activity, T14 combined with Cyclic T14 ([6]; T14 10 μM + Cyclic T14 100 nM, 1 hour): 112.30±1.39 | released AChE activity, T30 + NBP-14 [6, 7]: 130.73±1.84% | released AChE activity, T30 + NBP-14 [6, 8]: 111.68±2.26% | released AChE activity, T30 + NBP-14 [6, 9]: 92.78±0.99% | released AChE activity, T30 + NBP-14 [6, 10]: 82.56±2.38% | released AChE activity, T30 + NBP-14 [6, 11]: 68.90±0.92% | released AChE activity, T30 + NBP-14 [6, 12]: 65.12±1.32% | released AChE activity, T30 + NBP-14 [6, 13]: 61.04±0.97% | released AChE activity, T30 + NBP-14 ([6]; T30 5 uM + NBP-14, 8th of 10 values, concentration unclear): 79.43±1.69% | released AChE activity, T30 + NBP-14 [6, 14]: 83.91±1.24% | released AChE activity, T30 + NBP-14 [6, 15]: 89.55±1.25% | concentration range protective against AChE compensatory effects ([6]; T30 5 uM, FIG. 14): high nanomolar concentrations

KAEFHRWSSYMVHWKNQFDHYSKQDRCSDL [T30, reference compound]
binding affinity for the allosteric site on the α7 nicotinic-receptor [1]: 5 nM | increase of calcium influx ([2]; PC12 cells): about 70% | calcium influx (acetylcholine control = 100%) ([2]; T30 5 uM alone, ACh 100 μM, N=3): 171.05%±6.21 | viability at 10 µM ([3]; 10 μM, PC12, read-out: cell viability, peptide alone): 68.4 ± 3.1% | levels of full length APP (control 100%) ([4]; T30 5 μM): 67.82%±6.23 | % [3H] Ivermectin binding (Mean ± SEM) ([5]; 1 nM competitor, Table 1): 109.16 ± 11.9% | % [3H] Ivermectin binding (Mean ± SEM) ([5]; 10 nM competitor, Table 1): 116.63 ± 13.25% | % [3H] Ivermectin binding (Mean ± SEM) ([5]; 100 nM competitor, Table 1): 106.15 ± 8.04% | % [3H] Ivermectin binding (Mean ± SEM) ([5]; 1 μM competitor, Table 1): 97.41 ± 7.9% | % [3H] Ivermectin binding (Mean ± SEM) ([5]; 5 μM competitor, Table 1): 80.22 ± 3.81% | AChE activity, peptide alone ([6]; 10 μM, 1 hour, PC12): 129.10±1.18 | released AChE activity ([6]; T30 5 uM alone, N=3): 169.45%±2.11
